Key:
[1] = biological target: T1, rat lens aldose reductase (Rattus norvegicus, UniProt P07943); assay: inhibitory activity on rat lens aldose reductase (Experimental Example 1); format: biochemical; settings: pH 6.2, 10 mM DL-glyceraldehyde, 0.16 mM NADPH
T1 construct: rat lens aldose reductase; from tissue; host or cells: rat lens
Procedure: The inhibitory activities of hydantoin derivatives on rat lens aldose reductase were measured according to the procedure of Inagaki et al. (K. Inagaki et al., Arch. Biochem. Biophys., 216, 337 (1982)) with slight modifications. Assays were performed in 0.1M phosphate buffer (pH 6.2) containing 0.4M ammonium sulfate, 10 mM DL-glyceraldehyde, 0.16 mM nicotinamide adenine dinucleotide phosphate, reduced form (NADPH) and aldose reductase (0.010-0.016 units) in a total volume of 1.0 ml. To this mixture was added 10 μl of the solution of each hydantoin derivative to be tested, and the decrease in absorbance at 340 nm was measured with a spectrophotometer.
The concentrations of typical hydantoin derivatives of the present invention required to produce 50% inhibition are shown in table 1.

[2] = biological target: T2, bovine lens aldose reductase (Bos taurus, UniProt P16116); assay: inhibitory activity on bovine lens aldose reductase (Experimental Example 2); format: biochemical; settings: for IC50: pH 6.2, 10 mM DL-glyceraldehyde, 0.16 mM NADPH; for potency compared with compound 13 and 15: in words
T2 construct: bovine lens aldose reductase preparation was used; from tissue; host or cells: bovine lens
Procedure: Assays were performed in 0.1M phosphate buffer (pH 6.2) containing 0.4M ammonium sulfate, 10 mM DL-glyceraldehyde, 0.16 mM nicotinamide adenine dinucleotide phosphate, reduced form (NADPH) and aldose reductase (0.010-0.016 units) in a total volume of 1.0 ml. To this mixture was added 10 μl of the solution of each hydantoin derivative to be tested, and the decrease in absorbance at 340 nm was measured with a spectrophotometer.

[3] = test system: Streptozotocin-Diabetic Rats; assay: Hypoglycemic Effects in Streptozotocin-Diabetic Rats (Experimental Example 4); format: in vivo, rat (male Wistar); settings: Rattus norvegicus; STZ-diabetic rats, 100 mg/kg oral, 6 hrs after administration; read-out: Lowering rate of serum glucose (%)
Procedure: Diabetic rats were produced according to the method of Junod et al. (A. Junod et al., J. Clin. Invest., 48, 2129 (1969)). Briefly, male Wistar rats were given 26.5 mg/kg of streptozotocin (STZ) intravenously. Four days later, the rats with serum glucose levels of between 400 and 500 mg/dl were used. After being fasted for 4 hrs, groups of 5 diabetic rats were orally administered with the compounds of the present invention or gliclazide in a dose of 100 mg/kg. Blood sample were collected from the orbital vein before and 6 hrs after the administration. Serum glucose levels were determined by the enzymatic method with an autoanalyzer (Cobas Fara®, Roche).

O=C1CN(S(=O)(=O)c2cc3ccccc3cc2Cl)C(=O)N1 [Compound 2, 1-(3-chloronaphthalen-2-ylsulfonyl)hydantoin]
IC50 [1]: 0.16 µM

O=C1CN(S(=O)(=O)c2ccc3cc(Cl)ccc3c2)C(=O)N1 [Compound 4, 1-(6-chloronaphthalen-2-ylsulfonyl)hydantoin]
IC50 [1]: 0.14 µM

O=C1CN(S(=O)(=O)c2ccc3ccc(Cl)cc3c2)C(=O)N1 [Compound 5, 1-(7-chloronaphthalen-2-ylsulfonyl)hydantoin]
IC50 [1]: 0.39 µM

O=C1CN(S(=O)(=O)c2ccc3cccc(Cl)c3c2)C(=O)N1 [Compound 6, 1-(8-chloronaphthalen-2-ylsulfonyl)hydantoin]
IC50 [1]: 0.46 µM

O=C1CN(S(=O)(=O)c2ccc3ccccc3c2Br)C(=O)N1 [Compound 8, 1-(1-bromonaphthalen-2-ylsulfonyl)hydantoin]
IC50 [1]: 0.094 µM

O=C1CN(S(=O)(=O)c2ccc3cc(Br)ccc3c2)C(=O)N1 [Compound 10, 1-(6-bromonaphthalen-2-ylsulfonyl)hydantoin]
IC50 [1]: 0.17 µM

O=C1CN(S(=O)(=O)c2ccc3c([N+](=O)[O-])cccc3c2)C(=O)N1 [Compound 11, 1-(5-nitronaphthalen-2-ylsulfonyl)hydantoin]
IC50 [1]: 0.1 µM

O=C1CN(S(=O)(=O)c2cc3ccccc3s2)C(=O)N1 [Compound 16, 1-(benzo[b]thiophen-2-ylsulfonyl)hydantoin]
IC50 [2]: 0.39 µM
inhibition in vivo at 100 mg/kg [3]: 33.5%

O=C1CN(S(=O)(=O)c2sc3ccccc3c2Cl)C(=O)N1 [Compound 17, 1-(3-chlorobenzo[b]thiophen-2-yl-sulfonyl)hydantoin]
potency compared with compound 13 and 15 [2]: as potent as compound 13 and 15
IC50 [2]: 0.12 µM

O=C1CN(S(=O)(=O)c2cc3cc(Cl)ccc3s2)C(=O)N1 [Compound 18, 1-(5-chlorobenzo[b]thiophen-2-yl-sulfonyl)hydantoin]
potency compared with compound 13 and 15 [2]: as potent as compound 13 and 15
IC50 [2]: 0.24 µM

O=C1CN(S(=O)(=O)c2nc3ccccc3s2)C(=O)N1 [Compound 22, 1-(benzothiazol-2-ylsulfonyl)hydantoin]
IC50 [2]: 0.34 µM
inhibition in vivo at 100 mg/kg [3]: 15%

O=C1CN(S(=O)(=O)c2ccc3oc(=O)ccc3c2)C(=O)N1 [Compound 23, 1-(coumarin-6-ylsulfonyl)hydantoin]
potency compared with compound 13 and 15 [2]: as potent as compound 13 and 15
IC50 [2]: 0.22 µM

O=C1CN(S(=O)(=O)c2cc(Br)c(Br)s2)C(=O)N1 [Compound 25, 1-(4,5-dibromothiophen-2-ylsulfonyl)hydantoin]
IC50 [2]: 0.26 µM

O=C1CN(S(=O)(=O)c2cc3ccc(Cl)cc3s2)C(=O)N1 [Compound 26, 1-(6-chlorobenzo[b]thiophen-2-yl-sulfonyl)hydantoin]
IC50 [2]: 0.27 µM
inhibition in vivo at 100 mg/kg [3]: 33.1%

O=C1CN(S(=O)(=O)c2cc3cccc(Cl)c3s2)C(=O)N1 [Compound 27, 1-(7-chlorobenzo[b]thiophen-2-yl-sulfonyl)hydantoin]
IC50 [2]: 0.19 µM

CC(C)c1c(S(=O)(=O)N2CC(=O)NC2=O)sc2ccccc12 [Compound 28, 1-(3-isopropylbenzo[b]thiophen-2-yl-sulfonyl)hydantoin]
IC50 [2]: 0.14 µM

O=C1CN(S(=O)(=O)c2sc3ccccc3c2C(F)(F)F)C(=O)N1 [Compound 29, 1-(3-trifluoromethylbenzo[b]thiophen-2-ylsulfonyl)hydantoin]
IC50 [2]: 0.13 µM

O=C1CN(S(=O)(=O)c2sc3ccccc3c2Br)C(=O)N1 [Compound 30, 1-(3-bromobenzo[b]thiophen-2-yl-sulfonyl)hydantoin]
IC50 [2]: 0.12 µM

COc1c(S(=O)(=O)N2CC(=O)NC2=O)sc2ccccc12 [Compound 31, 1-(3-methoxybenzo[b]thiophen-2-yl-sulfonyl)hydantoin]
IC50 [2]: 0.27 µM

CS(=O)(=O)c1c(S(=O)(=O)N2CC(=O)NC2=O)sc2ccccc12 [Compound 32, 1-(3-methylsulfonylbenzo[b]thiophen-2-ylsulfonyl)hydantoin]
IC50 [2]: 0.38 µM

N#Cc1c(S(=O)(=O)N2CC(=O)NC2=O)sc2ccccc12 [Compound 33, 1-(3-cyanobenzo[b]thiophen-2-yl-sulfonyl)hydantoin]
IC50 [2]: 0.19 µM

O=C1CN(S(=O)(=O)c2sc3c(F)cccc3c2Br)C(=O)N1 [Compound 34, 1-(3-bromo-7-fluorobenzo[b]thiophen-2-ylsulfonyl)hydantoin]
IC50 [2]: 0.085 µM
inhibition in vivo at 100 mg/kg [3]: 13.2%

O=C1CN(S(=O)(=O)c2c(Cl)sc3ccccc23)C(=O)N1 [Compound 35, 1-(2-chlorobenzo[b]thiophen-3-yl-sulfonyl)hydantoin]
IC50 [2]: 0.3 µM
inhibition in vivo at 100 mg/kg [3]: 14%

O=C1CN(S(=O)(=O)c2cc3c(I)cccc3o2)C(=O)N1 [Compound 36, 1-(4-iodobenzo[b]furan-2-ylsulfonyl)hydantoin]
IC50 [2]: 0.24 µM

O=C1CN(S(=O)(=O)c2cc3c(Cl)cc(Cl)cc3o2)C(=O)N1 [Compound 37, 1-(4,6-dichlorobenzo[b]furan-2-yl-sulfonyl)hydantoin]
IC50 [2]: 0.17 µM
inhibition in vivo at 100 mg/kg [3]: 14.5%

O=C1CN(S(=O)(=O)c2cc3cc(F)ccc3s2)C(=O)N1 [Compound 39, 1-(5-fluorobenzo[b]thiophen-2-yl-sulfonyl)hydantoin]
IC50 [2]: 0.32 µM
inhibition in vivo at 100 mg/kg [3]: 16%

O=C1CN(S(=O)(=O)c2nsc3ccccc23)C(=O)N1 [Compound 41, 1-(benzo[b]isothiazol-3-ylsulfonyl)hydantoin]
IC50 [2]: 0.47 µM
inhibition in vivo at 100 mg/kg [3]: 23.6%

O=C1CN(S(=O)(=O)c2cc3cc([N+](=O)[O-])ccc3s2)C(=O)N1 [Compound 42, 1-(5-nitrobenzo[b]thiophen-2-yl-sulfonyl)hydantoin]
IC50 [2]: 0.27 µM

O=C1CN(S(=O)(=O)c2cc3cc(C(=O)O)ccc3s2)C(=O)N1 [Compound 43, 1-(5-carboxybenzo[b]thiophen-2-yl-sulfonyl)hydantoin]
IC50 [2]: 0.4 µM

O=C1CN(S(=O)(=O)c2oc3cc(Cl)cc(Cl)c3c2Br)C(=O)N1 [Compound 46, 1-(3-bromo-4,6-dichlorobenzo[b]furan-2-ylsulfonyl)hydantoin]
IC50 [2]: 0.054 µM

O=C1CN(S(=O)(=O)c2cc3cccc(F)c3o2)C(=O)N1 [Compound 48, 1-(7-fluorobenzo[b]furan-2-ylsulfonyl)hydantoin]
inhibition in vivo at 100 mg/kg [3]: 45.9%

O=C1CN(S(=O)(=O)c2oc3c(F)cccc3c2Br)C(=O)N1 [Compound 49, 1-(3-bromo-7-fluorobenzo[b]furan-2-yl-sulfonyl)hydantoin]
inhibition in vivo at 100 mg/kg [3]: 49.2%

O=C1CN(S(=O)(=O)c2ccc3ccccc3c2F)C(=O)N1 [Compound 50, 1-(1-fluoronaphthalen-2-ylsulfonyl)hydantoin]
inhibition in vivo at 100 mg/kg [3]: 48.8%

O=C1CN(S(=O)(=O)c2cc3c(Br)cccc3o2)C(=O)N1 [Compound 51, 1-(4-bromobenzo[b]furan-2-ylsulfonyl)hydantoin]
inhibition in vivo at 100 mg/kg [3]: 11%

O=C1CN(S(=O)(=O)c2cc3ccc(Br)cc3o2)C(=O)N1 [Compound 52, 1-(6-bromobenzo[b]furan-2-ylsulfonyl)hydantoin]
inhibition in vivo at 100 mg/kg [3]: 29%

O=C1CN(S(=O)(=O)c2oc3ccccc3c2I)C(=O)N1 [Compound 53, 1-(3-iodobenzo[b]furan-2-ylsulfonyl)hydantoin]
inhibition in vivo at 100 mg/kg [3]: 19%

O=C1CN(S(=O)(=O)c2oc3cc(Br)ccc3c2Br)C(=O)N1 [Compound 54, 1-(3,6-dibromobenzo[b]furan-2-yl-sulfonyl)hydantoin]
inhibition in vivo at 100 mg/kg [3]: 29%
